Values joined by “and” are separate entries in the source; they are usually repeats but may differ in a detail not shown here. Equal values may be shown once. One block for each compound: values may come before it.
Test system: 126254-015-R-J1-PDC complex spheroid growth, % test/control
Assay: Anticancer human tumor 126254-015-R-J1-PDC patient-derived soft tissue sarcoma cell line growth inhibition [Asc]
Conditions: for viability, T/C: stronger effect = lower value
Experimental: Multicellular complex tumor spheroid response to apoptosis pathway targeting inhibitors Alrizomadlin, Pelcitoclax, and Dasminapant in combination with a variety of drugs and investigational agents in selected tumor cell lines
The MDM2 inhibitor alrizomadlin, the Bcl-2/Bcl-xL inhibitor pelcitoclax, and the IAPs inhibitor dasminapant were evaluated both individually and in combination with standard of care and investigational anticancer small molecules within a complex spheroid model of solid tumors. . Complex spheroids include a stromal component modeled by human endothelial cells (HUVEC) and fibroblasts modeled by human mesenchymal stem cells (MSCs). The concentration ranges selected for each drug and investigational agent were based upon clinically achievable concentrations if the clinical Cmax of the agent was known.
Compounds. The drugs and investigational agents: alrizomadlin (APG-115; NSC831270), pelcitoclax (APG-1252; NSC835773), dasminapant (APG-1387;NSC834197), TAK-243 (NSC785004), copanlisib (NSC809693), olaparib (NSC753686), talazoparib (NSC767125), cobimetinib (NSC 768068), eltanexor (KPT-8602, NSC 794443), abemaciclib (NSC 768073), sotorasib (NSC818433), adagrasib (NSC 831453), MRTX-1133 (NSC 836407), Iadademestat (ORY1001, NSC 806812), and RMC-4630 (NSC839698), were obtained from the NCI Developmental Therapeutics Program Chemical Repository. The FDA-approved anticancer drug set is available from the Developmental Therapeutics Program at https://dtp.cancer.gov/organization/dscb/obtaining/available plates.htm. […] The stock solutions were prepared in dimethyl sulfoxide (DMSO, Sigma-Aldrich, St. Louis, MO, cat. D2650) at 800-fold the tested concentration and stored at -70 degrees C prior to their use. All drugs and investigational agents were tested over a range starting from a high concentration at or near the clinical Cmax and decreasing in half-log increments. If the clinical Cmax for an agent had not been determined, the highest concentration tested was 10 microM.
The patient-derived cancer (PDC) cell lines include five colon adenocarcinomas: 186277-243-T-J2-PDC, 616215-338-R-J1-PDC, 439559-082-T-J2-PDC, 463943-066-T-J2-PDC, and 519858-162-T-J1-PDC; three pancreatic carcinomas: 323965-272-R-J2-PDC, 521955-158-R6-J3-PDC, and 521955-158-R2-J5-PDC; two uterine sarcomas: 327498-152-R-J2-PDC and 993429-296-R-J1-PDC; two rhabdomyosarcomas: 755483-174-R-J1-PDC and 772245-204-R-J1-PDC; two soft tissue sarcomas: 126254-015-R-J1-PDC and 494315-158-R-J1-PDC; two malignant fibrous histiocytomas: 317291-083-R-J1-PDC and 596521-263-R-J1-PDC; two breast carcinomas: 171881-019-R-J1-PDC and 885512-296-R-J2-PDC; and one ovarian carcinoma: 6556581-035-R-J-PDC were obtained from the NCI PDMR, (https://pdmr.cancer.gov). The established cell lines HSSY-2 synovial sarcoma (RRID:CVCL 8719), SYO-1 synovial sarcoma (RRID:CVCL_7146), MPNST malignant peripheral neural sheath tumor were obtained from the Sloan Kettering Institute. The following established cell lines were purchased from the American Type Culture Collection (ATCC, Manassas, VA), Sor the received from the NCI repository:, PANC-1 pancreatic carcinoma (CRL-1469, RRID:CVCL_0480), OVCAR-5 ovarian carcinoma (RRID:CVCL_1628), OVCAR-8 ovarian carcinoma (RRID:CVCL_1629), , MCF-7 breast carcinoma (CRL-12584, RRID:CVCL_0031), MDA-MB-231 breast carcinoma (CRL-12532, RRID:CVCL_0062), NCI-H1876 small cell lung carcinoma (CRL-5902, RRID:CVCL_1503), NCI-H510A small cell lung carcinoma (HTB-184, RRID:CVCL_1565), NCI-H1417 (CRL-5869, RRID:CVCL_1469), and NCI-H196 small cell lung carcinoma (CRL-5823, RRID:CVCL_1509). Dr. Peter Houghton (Greehey Children's Cancer Research Institute, University of Texas Health Science Center, San Antonio, TX) provided Rh-18 rhabdomyosarcoma (RRID:CVCL_1659). Pooled donor human umbilical vein endothelial cells (HUVEC, Lonza, cat. CC-2519) and human mesenchymal stem cells (hMSC, Lonza, cat. PT-2501) were purchased from Lonza (Walkersville, MD).
Cell Culture. […]

[1] = curve of first compound, second compound 0.1 µM
[2] = curve of first compound, second compound 0.316 µM
[3] = curve of first compound, second compound 1 µM
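Note: spheroids exposed to compound for seven days.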
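Throughout, for viability, T/C: 100% = DMSO vehicle control wells.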

IC50 (curve of first compound, second compound 0.01 µM): > 100 nM | IC50 (curve of first compound, second compound 0.0316 µM): > 100 nM | IC50 [1]: 56.2 nM | IC50 [2]: 13.1 nM | IC50 [3]: 10 nM
SMILES: Cn1ncnc1[C@H]1c2n[nH]c(=O)c3cc(F)cc(c23)N[C@@H]1c1ccc(F)cc1 + CNC(C)C(=O)NC1CN(S(=O)(=O)c2cccc(S(=O)(=O)N3CCC4CCC(C(=O)NC(c5ccccc5)c5ccccc5)N4C(=O)C(NC(=O)C(C)NC)C3)c2)CCC2CCC(C(=O)NC(c3ccccc3)c3ccccc3)N2C1=O
viability, T/C (second compound 0.01 µM, first compound 0.000316 µM): 82.1% | viability, T/C (second compound 0.01 µM, first compound 0.001 µM): 82.3% | viability, T/C (second compound 0.01 µM, first compound 0.00316 µM): 78.2% | viability, T/C (second compound 0.01 µM, first compound 0.01 µM): 79.6% | viability, T/C (second compound 0.01 µM, first compound 0.0316 µM): 77.3% | viability, T/C (second compound 0.01 µM, first compound 0.1 µM): 63.1% | viability, T/C (second compound 0.0316 µM, first compound 0.000316 µM): 71% | viability, T/C (second compound 0.0316 µM, first compound 0.001 µM): 77.3% | viability, T/C (second compound 0.0316 µM, first compound 0.00316 µM): 71% | viability, T/C (second compound 0.0316 µM, first compound 0.01 µM): 61.4% | viability, T/C (second compound 0.0316 µM, first compound 0.0316 µM): 56.1% | viability, T/C (second compound 0.0316 µM, first compound 0.1 µM): 58.1% | viability, T/C (second compound 0.1 µM, first compound 0.000316 µM): 67.3% | viability, T/C (second compound 0.1 µM, first compound 0.001 µM): 67.4% | viability, T/C (second compound 0.1 µM, first compound 0.00316 µM): 60.5% | viability, T/C (second compound 0.1 µM, first compound 0.01 µM): 55.8% | viability, T/C (second compound 0.1 µM, first compound 0.0316 µM): 58.4% | viability, T/C (second compound 0.1 µM, first compound 0.1 µM): 44.7% | viability, T/C (second compound 0.316 µM, first compound 0.000316 µM): 56% | viability, T/C (second compound 0.316 µM, first compound 0.001 µM): 70.9% | viability, T/C (second compound 0.316 µM, first compound 0.00316 µM): 59.2% | viability, T/C (second compound 0.316 µM, first compound 0.01 µM): 51.8% | viability, T/C (second compound 0.316 µM, first compound 0.0316 µM): 44.4% | viability, T/C (second compound 0.316 µM, first compound 0.1 µM): 41% | viability, T/C (second compound 1 µM, first compound 0.000316 µM): 53.2% | viability, T/C (second compound 1 µM, first compound 0.001 µM): 63.7% | viability, T/C (second compound 1 µM, first compound 0.00316 µM): 56.2% | viability, T/C (second compound 1 µM, first compound 0.01 µM): 42.4% | viability, T/C (second compound 1 µM, first compound 0.0316 µM): 46.8% | viability, T/C (second compound 1 µM, first compound 0.1 µM): 44.1%

IC50 [1]: 765 nM | IC50 [2]: 451 nM | IC50 [3]: 501 nM | IC50 (curve of first compound, second compound 3.16 µM): 362 nM | IC50 (curve of first compound, second compound 10 µM): 465 nM
SMILES: Cc1nc(N2CCC3(CC2)COC(C)C3N)c(CO)nc1Sc1ccnc(N)c1Cl (configuration not stated) + Cc1c(S(C)(=O)=O)c(-c2cc(F)cc(N3CCN(c4ccc(NS(=O)(=O)c5ccc(NC(CCN6CCC(C(=O)OCCCP(=O)(O)O)CC6)CSc6ccccc6)c(S(=O)(=O)C(F)(F)F)c5)cc4)CC3)c2)c(-c2ccc(Cl)cc2)n1C(C)C
viability, T/C (second compound 0.1 µM, first compound 0.00949 µM): 88.7% | viability, T/C (second compound 0.1 µM, first compound 0.03 µM): 82.2% | viability, T/C (second compound 0.1 µM, first compound 0.0949 µM): 68.6% | viability, T/C (second compound 0.1 µM, first compound 0.3 µM): 56.7% | viability, T/C (second compound 0.1 µM, first compound 0.949 µM): 51.9% | viability, T/C (second compound 0.1 µM, first compound 3 µM): 34.4% | viability, T/C (second compound 0.316 µM, first compound 0.00949 µM): 83.1% | viability, T/C (second compound 0.316 µM, first compound 0.03 µM): 77.6% | viability, T/C (second compound 0.316 µM, first compound 0.0949 µM): 67.8% | viability, T/C (second compound 0.316 µM, first compound 0.3 µM): 55.3% | viability, T/C (second compound 0.316 µM, first compound 0.949 µM): 41% | viability, T/C (second compound 0.316 µM, first compound 3 µM): 34.2% | viability, T/C (second compound 1 µM, first compound 0.00949 µM): 80.8% | viability, T/C (second compound 1 µM, first compound 0.03 µM): 75.7% | viability, T/C (second compound 1 µM, first compound 0.0949 µM): 72.2% | viability, T/C (second compound 1 µM, first compound 0.3 µM): 54.4% | viability, T/C (second compound 1 µM, first compound 0.949 µM): 43.2% | viability, T/C (second compound 1 µM, first compound 3 µM): 30.7% | viability, T/C (second compound 3.16 µM, first compound 0.00949 µM): 78.6% | viability, T/C (second compound 3.16 µM, first compound 0.03 µM): 80.7% | viability, T/C (second compound 3.16 µM, first compound 0.0949 µM): 70.4% | viability, T/C (second compound 3.16 µM, first compound 0.3 µM): 51.7% | viability, T/C (second compound 3.16 µM, first compound 0.949 µM): 40.1% | viability, T/C (second compound 3.16 µM, first compound 3 µM): 34.6% | viability, T/C (second compound 10 µM, first compound 0.00949 µM): 79.2% | viability, T/C (second compound 10 µM, first compound 0.03 µM): 84.7% | viability, T/C (second compound 10 µM, first compound 0.0949 µM): 74% | viability, T/C (second compound 10 µM, first compound 0.3 µM): 56.1% | viability, T/C (second compound 10 µM, first compound 0.949 µM): 40.2% | viability, T/C (second compound 10 µM, first compound 3 µM): 32%

IC50 (curve of compound): > 100 nM
SMILES: Cn1ncnc1[C@H]1c2n[nH]c(=O)c3cc(F)cc(c23)N[C@@H]1c1ccc(F)cc1
viability, T/C (compound 0.000316 µM): 93.2% and 98% and 104% | viability, T/C (compound 0.001 µM): 95.6% and 106% and 103% | viability, T/C (compound 0.00316 µM): 90.9% and 91% and 86.1% | viability, T/C (compound 0.01 µM): 80.1% and 88.7% and 90.3% | viability, T/C (compound 0.0316 µM): 91.6% and 90% and 79.6% | viability, T/C (compound 0.1 µM): 80.9% and 89.7% and 70.5%
